Source: ChEMBL document CHEMBL5042529, “One-Pot Enzymatic Synthesis and Biological Evaluation of Ganglioside GM3 Derivatives as Potential Cancer Immunotherapeutics” (J Med Chem, 2022)
Activity calls are given as the source filed them. No cut-off for these calls is given here.

Key:
[1] = Toxicity in C57BL/6 mouse transfected with mouse B16-Luc cells assessed as behavioral abnormalities at 5 mg/kg, sc qd treated for 7 days; format: organism-based; conditions: in vivo, 168 h, time 7 day
[2] = Toxicity in BALB/c mouse transfected with mouse B16-Luc cells assessed as behavioral abnormalities at 5 mg/kg, sc qd treated for 7 days; format: organism-based; conditions: in vivo, 168 h, time 7 day
B16 [3] = experiment: Anticancer activity against mouse B16-Luc cells transfected in BALB/c mouse assessed as relative tumor weight at 5 mg/kg, ip qd treated for 7 days (reference value: 5.3 + /-1.4 g); format: functional; conditions: time 7 day
Mus musculus [4] = experiment: Effect on IL-2 expression in C57BL/6 mouse transfected with mouse B16-Luc cells assessed as serum […] level at 5 mg/kg, ip qd treated for 7 days by ELISA; format: functional, organism-based; conditions: time 7.0 day
[5] = Cytotoxicity against human A-431 cells measured after 24 hrs by MTT assay; format: toxicity, cell-based
[6] = Downregulation of VAVI gene expression in human A431 cells at 50 uM incubated for 24 hrs by qPCR analysis; format: functional; conditions: A-431
B16 [7] = experiment: Anticancer activity against mouse B16-Luc cells transfected in BALB/c mouse assessed as inflammatory cell infiltration in tumor tissue at 5 mg/kg, ip qd treated for 7 days by H and E staining based microscopy; format: functional, organism-based; conditions: time 7.0 day
B16 [8] = experiment: Anticancer activity against mouse B16-Luc cells transfected in BALB/c mouse assessed as increase in tumor necrotic area at 5 mg/kg, ip qd treated for 7 days by H and E staining based microscopy relative to control; format: functional, organism-based; conditions: time 7.0 day
Mus musculus [9] = experiment: Increase in IL-12 expression in BALB/c mouse transfected with mouse B16-Luc cells assessed as […] at 5 mg/kg, ip qd treated for 7 days by ELISA; format: functional, organism-based; conditions: time 7.0 day
[10] = Cytotoxicity against CHO cells measured after 24 hrs by MTT assay; format: toxicity, cell-based, Cricetulus griseus; conditions: Chinese hamster
[11] = Cytotoxicity against mouse Neuro2a cells measured after 24 hrs by MTT assay; format: toxicity, cell-based, N2a
[12] = Cytotoxicity against rat PC-12 cells measured after 24 hrs by MTT assay; format: toxicity, cell-based
[13] = Downregulation of XIAP gene expression in human A431 cells at 50 uM incubated for 24 hrs by RNA-seq analysis; format: functional; conditions: A-431
A-431 [14] = experiment: Inhibition of cell invasion in human A-431 cells assessed as inhibition rate at 50 uM incubated for 24 hrs by crystal violet staining based transwell assay; format: functional
Mus musculus [15] = experiment: Effect on IgG expression in BALB/c mouse transfected with mouse B16-Luc cells assessed as serum IgG level at 5 mg/kg, ip qd treated for 7 days by ELISA; format: functional, organism-based; conditions: time 7.0 day
B16 [16] = experiment: Anticancer activity against mouse B16-Luc cells transfected in C57BL/6 mouse assessed as cellular debris in tumor tissue at 5 mg/kg, ip qd treated for 7 days by H and E staining based microscopy; format: functional, organism-based; conditions: time 7.0 day
[17] = Downregulation of HSPG2 gene expression in human A431 cells at 50 uM incubated for 24 hrs by qPCR analysis; format: functional; conditions: A-431
[18] = Cytotoxicity against human HeLa cells measured after 24 hrs by MTT assay; format: toxicity, cell-based
[19] = Half life in C57BL/6 mouse 10 mg/kg, iv measured upto 24 hrs; format: ADME, organism-based; conditions: in vivo
Mus musculus [20] = experiment: Increase in IL-12 expression in C57BL/6 mouse transfected with mouse B16-Luc cells assessed as […] at 5 mg/kg, ip qd treated for 7 days by ELISA; format: functional, organism-based; conditions: time 7.0 day
B16 [21] = experiment: Anticancer activity against mouse B16-Luc cells transfected in BALB/c mouse assessed as cell atypia in tumor tissue at 5 mg/kg, ip qd treated for 7 days by H and E staining based microscopy; format: functional, organism-based; conditions: time 7.0 day
B16 [22] = experiment: Anticancer activity against mouse B16-Luc cells transfected in C57BL/6 mouse assessed as increase in tumor necrotic area at 5 mg/kg, ip qd treated for 7 days by H and E staining based microscopy relative to control; format: functional, organism-based; conditions: time 7.0 day
[23] = Downregulation of XIAP gene expression in human A431 cells at 50 uM incubated for 24 hrs by qPCR analysis; format: functional; conditions: A-431
[24] = Downregulation of HSPG2 gene expression in human A431 cells at 50 uM incubated for 24 hrs by RNA-seq analysis; format: functional; conditions: A-431
B16 [25] = experiment: Anticancer activity against mouse B16-Luc cells transfected in C57BL/6 mouse assessed as nuclear pyknosis in tumor tissue at 5 mg/kg, ip qd treated for 7 days by H and E staining based microscopy; format: functional, organism-based; conditions: time 7.0 day
B16 [26] = experiment: Anticancer activity against mouse B16-Luc cells transfected in BALB/c mouse assessed as tumor inhibition rate at 5 mg/kg, ip qd treated for 7 days; format: functional; conditions: 168 h, time 7 day
[27] = Apparent volume of distribution in C57BL/6 mouse at 10 mg/kg, iv measured upto 24 hrs; format: ADME, organism-based; conditions: in vivo
B16 [28] = experiment: Anticancer activity against mouse B16-Luc cells transfected in BALB/c mouse assessed as cellular debris in tumor tissue at 5 mg/kg, ip qd treated for 7 days by H and E staining based microscopy; format: functional, organism-based; conditions: time 7.0 day
[29] = Downregulation of LAMA5 gene expression in human A431 cells at 50 uM incubated for 24 hrs by qPCR analysis; format: functional; conditions: A-431
[30] = Downregulation of LAMA5 gene expression in human A431 cells at 50 uM incubated for 24 hrs by RNA-seq analysis; format: functional; conditions: A-431
B16 [31] = experiment: Anticancer activity against mouse B16-Luc cells transfected in BALB/c mouse assessed as nuclear pyknosis in tumor tissue at 5 mg/kg, ip qd treated for 7 days by H and E staining based microscopy; format: functional, organism-based; conditions: time 7.0 day
Mus musculus [32] = experiment: Effect on IL-2 expression in BALB/c mouse transfected with mouse B16-Luc cells assessed as serum IL-2 level at 5 mg/kg, ip qd treated for 7 days by ELISA; format: functional, organism-based; conditions: time 7.0 day
[33] = Reduction of VAVI expression in human A431 cells at 50 uM incubated for 24 hrs by Western blotting analysis; format: functional; conditions: A-431
B16 [34] = experiment: Anticancer activity against mouse B16-Luc cells transfected in C57BL/6 mouse assessed as cell atypia in tumor tissue at 5 mg/kg, ip qd treated for 7 days by H and E staining based microscopy; format: functional, organism-based; conditions: time 7.0 day
B16 [35] = experiment: Anticancer activity against mouse B16-Luc cells transfected in C57BL/6 mouse assessed as tumor inhibition rate at 5 mg/kg, ip qd treated for 7 days; format: functional; conditions: 168 h, time 7 day
B16 [36] = experiment: Anticancer activity against mouse B16-Luc cells transfected in C57BL/6 mouse assessed as relative tumor weight at 5 mg/kg, ip qd treated for 7 days (reference value: 8 + /- 4.1 g); format: functional; conditions: time 7 day
Mus musculus [37] = experiment: Effect on IL-2 expression in C57BL/6 mouse transfected with mouse B16-Luc cells assessed as serum IL-2 level at 5 mg/kg, ip qd treated for 7 days by ELISA; format: functional, organism-based; conditions: time 7.0 day
[38] = Downregulation of VAVI gene expression in human A431 cells at 50 uM incubated for 24 hrs by RNA-seq analysis; format: functional; conditions: A-431
[39] = Reduction of integrin beta1 expression in human A431 cells at 50 uM incubated for 24 hrs by Western blotting analysis; format: functional; conditions: A-431
B16 [40] = experiment: Anticancer activity against mouse B16-Luc cells transfected in C57BL/6 mouse assessed as inflammatory cell infiltration in tumor tissue at 5 mg/kg, ip qd treated for 7 days by H and E staining based microscopy; format: functional, organism-based; conditions: time 7.0 day
A-431 [41] = experiment: Antimigratory activity in human A-431 cells assessed as inhibition of scratch at 50 uM measured after 24 hrs by Wound healing assay; format: functional; set-up: scale not given: the % may be the effect or the level left
Mus musculus [42] = experiment: Effect on IL-2 expression in C57BL/6 mouse transfected with mouse B16-Luc cells assessed as serum IgG level at 5 mg/kg, ip qd treated for 7 days by ELISA; format: functional, organism-based; conditions: time 7.0 day
[43] = Clearance in C57BL/6 mouse at 10 mg/kg, iv measured upto 24 hrs; format: ADME, organism-based; conditions: in vivo

CCCCCCCCCCCCC/C=C/[C@@H](O)[C@H](CO[C@@H]1O[C@H](CO)[C@@H](O[C@@H]2O[C@H](CO)[C@H](O)[C@H](O[C@]3(C(=O)O)C[C@H](O)[C@@H](NC(=O)c4cccc(I)c4)[C@H]([C@H](O)[C@H](O)CO)O3)[C@H]2O)[C@H](O)[C@H]1O)NC(=O)CCCCCCCCCCCCCCCCC
Activity [1]: Non-Toxic | Activity [2]: Non-Toxic | Activity (B16 [3]): 5.3 g | Activity (Mus musculus [4]): inactive | IC50 at 24 h [5]: > 200 µM | inhibition at 50 µM [6]: 93.4% | Activity (B16 [7]): Active | Activity (B16 [8]): Active | Activity (Mus musculus [9]): inactive | IC50 at 24 h [10]: > 200 µM | IC50 at 24 h [11]: > 200 µM | IC50 at 24 h [12]: > 200 µM | inhibition at 50 µM [13]: 52.5% | inhibition at 50 µM (A-431 [14]): 36.6% | Activity (Mus musculus [15]): inactive | Activity (B16 [16]): Active | inhibition at 50 µM [17]: 33.4% | IC50 at 24 h [18]: > 200 µM | half-life [19]: 56.8 h | Activity (Mus musculus [20]): inactive | Activity (B16 [21]): Active | Activity (B16 [22]): Active | inhibition at 50 µM [23]: 46.2% | inhibition at 50 µM [24]: 55.2% | Activity (B16 [25]): Active | inhibition in vivo at 5 mg/kg (B16 [26]): 29.2% | Vd [27]: 2.4 mL/mg | Activity (B16 [28]): Active | inhibition at 50 µM [29]: 54.1% | inhibition at 50 µM [30]: 50.8% | Activity (B16 [31]): Active | Activity (Mus musculus [32]): inactive | inhibition at 50 µM [33]: 14.5% | Activity (B16 [34]): Active | inhibition in vivo at 5 mg/kg (B16 [35]): 46.2% | Activity (B16 [36]): 4.3 g | Activity (Mus musculus [37]): inactive | inhibition at 50 µM [38]: 100% | inhibition at 50 µM [39]: 14.7% | Activity (B16 [40]): Active | Activity (A-431 [41]): 46.7% | Activity (Mus musculus [42]): inactive | CL [43]: 0.483 µL/min/mg
